The text below walks through data of patent US10670605B2, “Cysteine reactive probes and uses thereof” (The Scripps Research Institute, priority 2015, dated 2020).

Structures are written as SMILES.

Holding throughout (assay): Competitive isoTOP-ABPP in situ (fragment-treated cells)
Format in all cases: cell-based

In assay [1] the target is T1, cysteines in MDA-MB-231 and Ramos cells (Homo sapiens, UniProt Q8WVV9).
T1 sequence (Q8WVV9 1-542): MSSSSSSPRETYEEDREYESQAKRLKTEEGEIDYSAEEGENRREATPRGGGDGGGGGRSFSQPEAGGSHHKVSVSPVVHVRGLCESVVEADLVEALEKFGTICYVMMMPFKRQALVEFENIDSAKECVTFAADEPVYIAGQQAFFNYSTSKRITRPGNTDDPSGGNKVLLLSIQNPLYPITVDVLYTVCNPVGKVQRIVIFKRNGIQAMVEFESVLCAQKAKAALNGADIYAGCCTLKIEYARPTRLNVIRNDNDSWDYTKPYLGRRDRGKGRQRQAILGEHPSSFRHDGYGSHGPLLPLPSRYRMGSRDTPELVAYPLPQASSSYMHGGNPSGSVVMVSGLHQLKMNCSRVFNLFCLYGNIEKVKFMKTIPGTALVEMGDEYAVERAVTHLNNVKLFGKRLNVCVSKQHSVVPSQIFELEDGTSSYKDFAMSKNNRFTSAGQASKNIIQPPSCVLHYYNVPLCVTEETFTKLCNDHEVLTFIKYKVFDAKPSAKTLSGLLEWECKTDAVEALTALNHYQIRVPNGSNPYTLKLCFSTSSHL

In assay [2] the target is cysteines in MDA-MB-231 and Ramos cells (Homo sapiens, UniProt Q15118).
Sequence of cysteines in MDA-MB-231 and Ramos cells (Homo sapiens, UniProt Q15118) (Q15118 29-436): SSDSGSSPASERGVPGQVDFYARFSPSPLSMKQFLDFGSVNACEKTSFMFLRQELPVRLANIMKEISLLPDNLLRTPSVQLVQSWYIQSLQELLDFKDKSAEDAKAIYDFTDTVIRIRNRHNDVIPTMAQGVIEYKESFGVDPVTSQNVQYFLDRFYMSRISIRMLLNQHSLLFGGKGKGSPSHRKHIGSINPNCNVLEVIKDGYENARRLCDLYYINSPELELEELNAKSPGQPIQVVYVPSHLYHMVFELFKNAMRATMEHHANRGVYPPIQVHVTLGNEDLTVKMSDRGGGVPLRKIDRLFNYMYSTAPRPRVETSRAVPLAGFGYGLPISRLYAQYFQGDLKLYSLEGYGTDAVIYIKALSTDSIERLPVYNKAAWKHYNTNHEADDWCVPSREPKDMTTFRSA
Assay [3] concerns the target cysteines in MDA-MB-231 and Ramos cells (Homo sapiens, UniProt O14933). Conditions: 200 μM, insitu, 231.
Assay [4] addresses T2, cysteines in MDA-MB-231 and Ramos cells (Homo sapiens, UniProt Q86UY8).
T2 sequence (Q86UY8 1-548): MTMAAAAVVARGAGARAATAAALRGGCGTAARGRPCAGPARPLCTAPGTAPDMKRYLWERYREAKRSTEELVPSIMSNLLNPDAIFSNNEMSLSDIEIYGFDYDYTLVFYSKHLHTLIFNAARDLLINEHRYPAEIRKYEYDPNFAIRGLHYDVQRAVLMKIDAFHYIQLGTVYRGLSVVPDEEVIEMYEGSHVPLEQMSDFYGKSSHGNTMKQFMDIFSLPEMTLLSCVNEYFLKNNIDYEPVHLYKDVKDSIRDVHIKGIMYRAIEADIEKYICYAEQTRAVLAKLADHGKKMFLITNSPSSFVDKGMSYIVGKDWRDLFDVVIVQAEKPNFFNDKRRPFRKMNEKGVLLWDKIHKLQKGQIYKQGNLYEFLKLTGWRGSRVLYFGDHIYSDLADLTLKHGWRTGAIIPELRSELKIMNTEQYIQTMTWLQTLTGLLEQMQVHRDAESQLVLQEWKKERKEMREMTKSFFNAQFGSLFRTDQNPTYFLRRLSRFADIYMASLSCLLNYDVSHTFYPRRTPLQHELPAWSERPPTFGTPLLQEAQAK

The target of assay [5] is T3, cysteines in MDA-MB-231 and Ramos cells (Homo sapiens, UniProt Q9NY27).
T3 sequence (Q9NY27 1-417): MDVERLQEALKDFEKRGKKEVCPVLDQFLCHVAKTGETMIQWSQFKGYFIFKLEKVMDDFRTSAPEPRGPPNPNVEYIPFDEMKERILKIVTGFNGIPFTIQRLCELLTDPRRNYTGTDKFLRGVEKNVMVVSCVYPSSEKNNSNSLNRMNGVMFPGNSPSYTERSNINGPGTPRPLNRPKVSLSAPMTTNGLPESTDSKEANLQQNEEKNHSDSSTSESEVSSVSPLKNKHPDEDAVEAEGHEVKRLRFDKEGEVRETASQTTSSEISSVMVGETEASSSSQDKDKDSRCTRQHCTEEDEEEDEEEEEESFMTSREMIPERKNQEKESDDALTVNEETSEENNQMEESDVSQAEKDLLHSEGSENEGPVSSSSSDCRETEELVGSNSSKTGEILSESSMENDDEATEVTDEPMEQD

In assay [6] the target is cysteines in MDA-MB-231 and Ramos cells (Homo sapiens, UniProt Q9UNI6). The settings on record: 200 μM, insitu, 231.
Sequence of cysteines in MDA-MB-231 and Ramos cells (Homo sapiens, UniProt Q9UNI6) (Q9UNI6 whole entry): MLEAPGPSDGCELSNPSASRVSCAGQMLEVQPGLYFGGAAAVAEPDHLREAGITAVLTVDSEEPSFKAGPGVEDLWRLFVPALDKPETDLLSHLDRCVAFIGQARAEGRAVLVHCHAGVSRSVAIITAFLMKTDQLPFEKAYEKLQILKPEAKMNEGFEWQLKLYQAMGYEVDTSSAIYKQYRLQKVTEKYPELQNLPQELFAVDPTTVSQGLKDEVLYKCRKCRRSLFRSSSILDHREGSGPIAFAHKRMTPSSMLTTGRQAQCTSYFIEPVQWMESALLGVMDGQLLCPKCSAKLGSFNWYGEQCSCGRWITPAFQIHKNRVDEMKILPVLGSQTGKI
The target of assay [7] is cysteines in MDA-MB-231 and Ramos cells (Homo sapiens, UniProt Q9UJW0).
Sequence of cysteines in MDA-MB-231 and Ramos cells (Homo sapiens, UniProt Q9UJW0) (Q9UJW0 whole entry): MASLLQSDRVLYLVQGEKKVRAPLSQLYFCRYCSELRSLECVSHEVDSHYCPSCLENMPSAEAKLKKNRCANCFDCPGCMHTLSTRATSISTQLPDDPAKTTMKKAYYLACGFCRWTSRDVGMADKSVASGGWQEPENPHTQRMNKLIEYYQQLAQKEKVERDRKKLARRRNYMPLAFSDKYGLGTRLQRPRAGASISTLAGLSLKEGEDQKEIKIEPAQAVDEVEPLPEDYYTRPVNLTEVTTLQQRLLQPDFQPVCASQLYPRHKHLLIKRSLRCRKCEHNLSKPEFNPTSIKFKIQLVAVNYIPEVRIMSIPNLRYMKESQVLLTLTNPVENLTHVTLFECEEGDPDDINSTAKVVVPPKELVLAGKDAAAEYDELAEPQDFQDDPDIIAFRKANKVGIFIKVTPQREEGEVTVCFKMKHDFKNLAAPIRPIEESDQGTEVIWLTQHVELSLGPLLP
Assay [8] concerns the target cysteines in MDA-MB-231 and Ramos cells (Homo sapiens, UniProt Q96FX7). The settings on record: 200 μM, insitu, 231.
Assay [9] addresses cysteines in MDA-MB-231 and Ramos cells (Homo sapiens, UniProt O15446). The settings on record: 200 μM, insitu, 231.
Assay [10] has as its target cysteines in MDA-MB-231 and Ramos cells (Homo sapiens, UniProt P22061).
In assay [11] the target is cysteines in MDA-MB-231 and Ramos cells (Homo sapiens, UniProt P45984).
Sequence of cysteines in MDA-MB-231 and Ramos cells (Homo sapiens, UniProt P45984) (P45984 whole entry): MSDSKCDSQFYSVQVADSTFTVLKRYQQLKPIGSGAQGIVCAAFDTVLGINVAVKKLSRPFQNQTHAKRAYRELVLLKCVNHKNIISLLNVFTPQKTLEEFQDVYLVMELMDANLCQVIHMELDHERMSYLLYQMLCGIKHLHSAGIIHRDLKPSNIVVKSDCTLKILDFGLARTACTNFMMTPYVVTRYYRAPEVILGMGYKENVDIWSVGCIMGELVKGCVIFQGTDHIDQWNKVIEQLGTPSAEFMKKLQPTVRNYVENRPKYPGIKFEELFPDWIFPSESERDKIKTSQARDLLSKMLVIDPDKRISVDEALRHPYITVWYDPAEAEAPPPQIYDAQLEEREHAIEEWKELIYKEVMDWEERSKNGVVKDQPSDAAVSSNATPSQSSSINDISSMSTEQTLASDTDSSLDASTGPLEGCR
The target in assay [12] is cysteines in MDA-MB-231 and Ramos cells (Homo sapiens, UniProt Q96RP9). The settings on record: 200 μM, insitu, 231.
Sequence of cysteines in MDA-MB-231 and Ramos cells (Homo sapiens, UniProt Q96RP9) (Q96RP9 37-751): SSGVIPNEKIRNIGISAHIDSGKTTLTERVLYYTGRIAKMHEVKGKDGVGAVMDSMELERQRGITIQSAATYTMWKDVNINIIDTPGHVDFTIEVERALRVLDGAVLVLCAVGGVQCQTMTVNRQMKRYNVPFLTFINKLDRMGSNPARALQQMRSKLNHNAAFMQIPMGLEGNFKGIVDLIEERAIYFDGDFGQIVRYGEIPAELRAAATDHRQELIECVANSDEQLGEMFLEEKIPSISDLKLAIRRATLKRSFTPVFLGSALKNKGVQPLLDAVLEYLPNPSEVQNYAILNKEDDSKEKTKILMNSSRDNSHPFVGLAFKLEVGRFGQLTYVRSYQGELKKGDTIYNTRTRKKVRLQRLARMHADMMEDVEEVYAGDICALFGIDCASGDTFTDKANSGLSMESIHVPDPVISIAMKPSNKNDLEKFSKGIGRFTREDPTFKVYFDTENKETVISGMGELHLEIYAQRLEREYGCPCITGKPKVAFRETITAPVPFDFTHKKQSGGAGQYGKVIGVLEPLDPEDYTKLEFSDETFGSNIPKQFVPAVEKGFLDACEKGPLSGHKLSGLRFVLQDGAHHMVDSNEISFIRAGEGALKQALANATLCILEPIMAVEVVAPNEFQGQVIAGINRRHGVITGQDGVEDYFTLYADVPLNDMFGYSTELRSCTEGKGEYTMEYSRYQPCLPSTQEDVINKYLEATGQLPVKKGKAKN
Assay [13] has as its target cysteines in MDA-MB-231 and Ramos cells (Homo sapiens, UniProt P68366).
The target of assay [14] is cysteines in MDA-MB-231 and Ramos cells (Homo sapiens, UniProt Q96EY5).
For assay [15], the target named is T4, cysteines in MDA-MB-231 and Ramos cells (Homo sapiens, UniProt Q13158).
T4 sequence (Q13158 1-208): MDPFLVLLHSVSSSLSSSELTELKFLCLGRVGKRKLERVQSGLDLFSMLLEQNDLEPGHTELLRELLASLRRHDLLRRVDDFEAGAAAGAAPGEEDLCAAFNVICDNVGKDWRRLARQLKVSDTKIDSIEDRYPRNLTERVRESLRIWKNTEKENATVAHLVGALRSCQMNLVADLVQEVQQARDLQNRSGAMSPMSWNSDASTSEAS
Conditions: 200 μM, insitu, 231.

Assay [16] deals with cysteines in MDA-MB-231 and Ramos cells (Homo sapiens, UniProt Q06203). Conditions: 200 μM, insitu, 231.
Sequence of cysteines in MDA-MB-231 and Ramos cells (Homo sapiens, UniProt Q06203) (Q06203 12-517): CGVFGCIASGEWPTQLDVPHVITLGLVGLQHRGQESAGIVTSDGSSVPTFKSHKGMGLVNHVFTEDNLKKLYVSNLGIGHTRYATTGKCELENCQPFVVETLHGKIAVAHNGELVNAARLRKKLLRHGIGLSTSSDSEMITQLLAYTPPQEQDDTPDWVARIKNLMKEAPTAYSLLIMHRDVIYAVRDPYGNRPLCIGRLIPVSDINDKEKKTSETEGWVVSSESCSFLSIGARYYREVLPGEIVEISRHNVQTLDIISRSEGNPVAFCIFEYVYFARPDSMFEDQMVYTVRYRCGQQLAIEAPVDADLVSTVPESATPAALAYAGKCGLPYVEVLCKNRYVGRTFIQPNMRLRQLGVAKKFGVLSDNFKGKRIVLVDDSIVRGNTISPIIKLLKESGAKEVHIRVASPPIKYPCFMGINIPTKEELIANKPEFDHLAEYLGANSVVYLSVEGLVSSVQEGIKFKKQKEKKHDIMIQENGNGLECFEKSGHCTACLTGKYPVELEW

Sequence of cysteines in MDA-MB-231 and Ramos cells (Homo sapiens, UniProt Q96FX7) (Q96FX7 whole entry): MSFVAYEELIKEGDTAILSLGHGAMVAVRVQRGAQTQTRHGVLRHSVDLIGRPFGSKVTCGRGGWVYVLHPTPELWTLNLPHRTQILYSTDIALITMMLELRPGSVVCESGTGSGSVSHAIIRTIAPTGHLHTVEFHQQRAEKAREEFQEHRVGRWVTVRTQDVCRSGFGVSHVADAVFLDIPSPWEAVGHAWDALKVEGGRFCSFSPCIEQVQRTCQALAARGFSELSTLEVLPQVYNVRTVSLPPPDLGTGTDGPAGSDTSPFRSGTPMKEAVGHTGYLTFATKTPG
Sequence of cysteines in MDA-MB-231 and Ramos cells (Homo sapiens, UniProt P68366) (P68366 whole entry): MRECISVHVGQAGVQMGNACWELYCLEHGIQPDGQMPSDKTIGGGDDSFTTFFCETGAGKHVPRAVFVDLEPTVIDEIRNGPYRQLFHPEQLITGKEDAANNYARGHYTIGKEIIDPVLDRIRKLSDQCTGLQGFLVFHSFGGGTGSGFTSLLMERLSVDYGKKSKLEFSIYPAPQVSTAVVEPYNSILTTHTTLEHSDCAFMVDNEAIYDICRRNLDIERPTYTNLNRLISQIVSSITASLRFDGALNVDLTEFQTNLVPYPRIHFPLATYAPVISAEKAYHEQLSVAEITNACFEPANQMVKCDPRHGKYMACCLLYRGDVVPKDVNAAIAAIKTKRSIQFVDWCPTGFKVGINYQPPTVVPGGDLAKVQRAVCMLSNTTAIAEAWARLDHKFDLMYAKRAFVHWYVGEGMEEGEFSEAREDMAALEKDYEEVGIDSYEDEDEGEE
Sequence of cysteines in MDA-MB-231 and Ramos cells (Homo sapiens, UniProt O15446) (O15446 whole entry): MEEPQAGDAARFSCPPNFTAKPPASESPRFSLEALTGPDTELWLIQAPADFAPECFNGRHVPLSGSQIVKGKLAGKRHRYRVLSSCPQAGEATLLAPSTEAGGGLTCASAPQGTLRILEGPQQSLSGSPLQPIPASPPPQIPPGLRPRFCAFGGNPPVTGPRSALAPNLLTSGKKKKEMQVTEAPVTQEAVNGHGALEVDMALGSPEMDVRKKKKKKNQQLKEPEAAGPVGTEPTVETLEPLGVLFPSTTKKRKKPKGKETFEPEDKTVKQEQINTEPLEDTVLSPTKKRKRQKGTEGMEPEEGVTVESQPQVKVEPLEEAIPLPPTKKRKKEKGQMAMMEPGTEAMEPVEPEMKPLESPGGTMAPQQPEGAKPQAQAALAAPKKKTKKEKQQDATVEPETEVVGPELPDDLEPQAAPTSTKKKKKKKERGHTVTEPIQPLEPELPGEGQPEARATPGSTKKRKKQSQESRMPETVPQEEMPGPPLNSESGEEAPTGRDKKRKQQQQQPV
Sequence of cysteines in MDA-MB-231 and Ramos cells (Homo sapiens, UniProt O14933) (O14933 whole entry): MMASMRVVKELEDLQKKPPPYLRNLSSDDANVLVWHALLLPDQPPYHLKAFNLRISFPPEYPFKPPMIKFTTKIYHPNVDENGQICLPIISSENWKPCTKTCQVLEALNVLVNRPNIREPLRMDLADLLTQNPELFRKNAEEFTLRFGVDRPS
Sequence of cysteines in MDA-MB-231 and Ramos cells (Homo sapiens, UniProt P22061) (P22061 whole entry): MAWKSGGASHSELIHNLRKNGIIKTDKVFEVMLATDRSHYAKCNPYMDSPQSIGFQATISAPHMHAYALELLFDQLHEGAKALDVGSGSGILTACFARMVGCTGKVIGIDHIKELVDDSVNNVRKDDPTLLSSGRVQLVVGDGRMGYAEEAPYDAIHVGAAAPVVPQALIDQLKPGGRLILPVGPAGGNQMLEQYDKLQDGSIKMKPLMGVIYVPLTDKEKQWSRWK

`CC1CCc2ccccc2N1C(=O)CCl` (centres unmarked) [compound 45]: the “isoTOP-ABPP ratio Q8WVV9_C464” value in [1] (200 μM, insitu, 231) was 20.0. Moreover, the “isoTOP-ABPP ratio Q15118_C71” value in [2] (200 μM, insitu, 231) was 20.0. Further, the “isoTOP-ABPP ratio O14933_C98” value in [3] was 20.0. In addition, the “isoTOP-ABPP ratio Q86UY8_C276” value in assay [4] (200 μM, insitu, 231) is reported as 2.1. For the same compound, the “isoTOP-ABPP ratio Q9NY27_C22” value in assay [5] (200 μM, insitu, 231) is recorded as 20.0. Besides, in assay [6], the “isoTOP-ABPP ratio Q9UNI6_C265” value worked out at 7.5. Further, the “isoTOP-ABPP ratio Q9UJW0_C258” value in assay [7] (200 μM, insitu, 231) is recorded as 2.7. The “isoTOP-ABPP ratio Q96FX7_C209” value in [8] came out at 20.0. Also, in assay [9], the “isoTOP-ABPP ratio O15446_C86” value was determined as 4.6.

For the compound `O=C(CCl)NC(=O)NC12CC3CC(CC(C3)C1)C2` [compound 12], in assay [1] (200 μM, insitu, 231), the “isoTOP-ABPP ratio, cysteine Q8WVV9_C464” value is on record as 20.0. For the same compound, the “isoTOP-ABPP ratio P22061_C102” value in assay [10] (200 μM, insitu, 231) is listed as 5.8. Moreover, the “isoTOP-ABPP ratio Q86UY8_C276” value in [4] (200 μM, insitu, 231) is 20.0. Besides, in assay [5] (200 μM, insitu, 231), the “isoTOP-ABPP ratio Q9NY27_C22” value is 20.0. Moreover, the “isoTOP-ABPP ratio P45984_C177” value in assay [11] (200 μM, insitu, 231) came out at 2.1. The “isoTOP-ABPP ratio, cysteine Q9UNI6_C265” value in assay [6] is recorded as 1.2. Also, the “isoTOP-ABPP ratio, cysteine Q96RP9_C153” value in assay [12] stood at 20.0. In addition, the “isoTOP-ABPP ratio Q9UJW0_C258” value in [7] (200 μM, insitu, 231) was found to be 20.0. Further, the “isoTOP-ABPP ratio, cysteine Q96FX7_C209” value in assay [8] stood at 20.0. The “isoTOP-ABPP ratio, cysteine O15446_C86” value in [9] came to 3.3.

Turning to `O=C(CCl)NC12CC3CC(CC(C3)C1)C2` [compound 21], in [1] (200 μM, insitu, 231), the “isoTOP-ABPP ratio, cysteine Q8WVV9_C464” value was 1.4. Moreover, the “isoTOP-ABPP ratio Q15118_C71” value in [2] (200 μM, insitu, 231) amounted to 1.7. In [3], the “isoTOP-ABPP ratio, cysteine O14933_C98” value is given as 0.7. Further, in assay [4] (200 μM, insitu, 231), the “isoTOP-ABPP ratio Q86UY8_C276” value was found to be 1.8. In addition, in [13] (200 μM, insitu, 231), the “isoTOP-ABPP ratio P68366_C54” value amounted to 0.8. Further, in assay [14] (200 μM, insitu, 231), the “isoTOP-ABPP ratio, cysteine Q96EY5_C231” value came out at 0.7. In addition, the “isoTOP-ABPP ratio, cysteine Q96RP9_C153” value in [12] was 1.4. Further, in assay [8], the “isoTOP-ABPP ratio, cysteine Q96FX7_C209” value is listed as 2.0. Besides, in assay [9], the “isoTOP-ABPP ratio, cysteine O15446_C86” value is listed as 1.7.

With `Cn1cc(S(=O)(=O)N2CCOCC2)cc1C(=O)NC(=O)CCl` [compound 11], the “isoTOP-ABPP ratio, cysteine Q8WVV9_C464” value in [1] (100 μM in situ 231) is listed as 0.9. The “isoTOP-ABPP ratio P22061_C102” value in assay [10] (100 μM in situ 231) is given as 0.8. Further, in assay [2] (100 μM in situ 231), the “isoTOP-ABPP ratio Q15118_C71” value came to 0.6. For the same compound, the “isoTOP-ABPP ratio Q86UY8_C276” value in [4] (100 μM in situ 231) is 1.4. Further, the “isoTOP-ABPP ratio P68366_C54” value in [13] (100 μM in situ 231) stood at 0.3. Also, the “isoTOP-ABPP ratio Q9NY27_C22” value in assay [5] (100 μM in situ 231) is given as 2.3. Further, the “isoTOP-ABPP ratio P45984_C177” value in assay [11] (100 μM in situ 231) is reported as 0.9. Also, in [14] (100 μM in situ 231), the “isoTOP-ABPP ratio, cysteine Q96EY5_C231” value turned out to be 0.7. Besides, the “isoTOP-ABPP ratio Q9UJW0_C258” value in assay [7] (100 μM in situ 231) was found to be 20.0.

As for `C=CC(=O)Nc1cc(F)c(N2CCN(C(=O)OC(C)(C)C)CC2)c(F)c1` [compound 38], the “isoTOP-ABPP ratio Q13158_C98” value in assay [15] came out at 1.5. Further, the “isoTOP-ABPP ratio Q8WVV9_C464” value in [1] (200 μM, insitu, 231) is 1.5. Besides, the “isoTOP-ABPP ratio Q06203_C100” value in [16] is given as 1.2. Further, the “isoTOP-ABPP ratio Q15118_C71” value in [2] (200 μM, insitu, 231) was determined as 1.3. Besides, the “isoTOP-ABPP ratio O14933_C98” value in [3] was 1.6. Besides, the “isoTOP-ABPP ratio P68366_C54” value in [13] (200 μM, insitu, 231) stood at 2.0. Besides, the “isoTOP-ABPP ratio Q9NY27_C22” value in assay [5] (200 μM, insitu, 231) is on record as 1.0. For the same compound, in assay [6], the “isoTOP-ABPP ratio Q9UNI6_C265” value is 1.0. Further, the “isoTOP-ABPP ratio Q96EY5_C231” value in assay [14] (200 μM, insitu, 231) came out at 1.8. In addition, the “isoTOP-ABPP ratio Q96FX7_C209” value in [8] is on record as 1.0.
